{"source": "patent US20150197500A1", "about": "“NO-RELEASING GUANIDINE-CHROMENE CONJUGATES” (Euclises Pharmaceuticals, Inc., priority 2014, published 2015)", "system": "PGE2 production", "experiment": "Rat air-pouch model for acute inflammation (PGE2 in exudate by ELISA)", "assay_type": "in vivo, Sprague-Dawley rats", "conditions": "oral gavage 0.01 mmol/kg 2 h before carrageenan, exudate 4 h after carrageenan, 6 rats/group", "experimental": "A study of chromene release is assessed by measurement of PGE2 levels, which are indicative of inflammatory response.\nAnimals: Sprague-Dawley rats (Charles River Laboratories, R #3234, PO #738990, male, 160-180 g) are received, individually examined, and housed in cages of five rats each. The rats are ear notched for identification purposes.\nCompounds and dosing solutions: The vehicle is prepared by dissolving 40 g (2-hydroxypropyl)-[…] making a 25% solution which is filter sterilized (0.2 μm, Nalgene, Cat. 151-4020, lot 1095610). […]\nDay 6—Compound administration and carrageenan insult: At commencement of the study, each rat is weighed and sorted into treatment groups of 6 rats/group based upon average weight. […] The pouch is gently massaged, the exudate immediately removed, and exudate volume recorded. […]\nData analysis: The exudate samples are thawed to room temperature and assayed by ELISA for PGE2 (R&D Systems, Cat. KGE004B, lot 307711). Statistical significance of treatments on mean exudate volumes are determined by comparison of means for treatment groups with vehicle group. Mean cytokine concentrations and standard deviations are determined for each group. […] Statistical significance (p-value) is calculated vs control groups by Student's t-Test. […]", "note": "Counter-ions that a name gives are not always drawn.", "data": [{"smiles": "CC(=O)NC(CCCNC(=N)N)C(=O)OCOC(=O)C1=Cc2cc(Cl)c(C(C)(C)C)cc2OC1C(F)(F)F", "note": "(stereo not shown) [Example 33a, trifluoroacetate salt]", "values": [{"measurement": "% Inhibition of PGE2 production relative to control (+/−S.D.)", "value": "75.7 (+/−11.9) %"}]}]}
